Experimental data: patent publication US20190105367A1, “ANTIMICROBIAL 4-OXOQUINOLIZINES” (Emergent Product Development Gaithersburg Inc., priority 2011, published 2019)
≈ marks a conversion by molar mass, not a printed value. Where two headings read alike, the source gives them in different places.

Legend:
A. baumannii A472 [1] = assay: Preliminary MBC without and with sub-inhibitory polymyxin B (Example 4); assay type: cell-based, Acinetobacter baumannii; details: Acinetobacter baumannii, preliminary MBC
A. baumannii ATCC 19606 = assay: MIC without and with sub-inhibitory polymyxin B (Example 4); assay type: cell-based, Acinetobacter baumannii; details: A. baumannii ATCC 19606
A. baumannii A473 [2] = assay: as above; assay type: cell-based, Acinetobacter baumannii; details: A. baumannii A473; +0.06 μg/ml PB; 2nd experiment
A. baumannii A401 [3] = assay: as above; assay type: cell-based, Acinetobacter baumannii; details: for MIC: Acinetobacter baumannii
A. baumannii A329 [4] = assay: as above; assay type: cell-based, Acinetobacter baumannii; details: A. baumannii A329; +0.06 μg/ml PB; 2nd experiment
A. baumannii NCTC 13301 [5] = assay: as above; assay type: cell-based, Acinetobacter baumannii; details: +[…] PB, 2nd experiment
[6] = tested on: strains of A. baumannii and one strain of Acinetobacter sp.; assay: MIC with sub-inhibitory concentrations (0.25x MIC) of polymyxin B, panel of Acinetobacter strains (Example 4); assay type: cell-based
A. baumannii A390 [7] = assay: MIC without and with sub-inhibitory polymyxin B (Example 4); assay type: cell-based, Acinetobacter baumannii; details: +0.06 μg/ml PB, 2nd experiment
[8] = tested on: Acinetobacter sp. (H064200250); assay: as above; assay type: cell-based; details: for MIC: Acinetobacter
A. baumannii J2 [9] = assay: as above; assay type: cell-based, Acinetobacter baumannii; details: for MIC without PB/MIC + PB: A. baumannii J2; for MIC: Acinetobacter baumannii
A. baumannii A387 [10] = assay: as above; assay type: cell-based, Acinetobacter baumannii; details: for MIC without PB/MIC + PB: A. baumannii A387; for MIC: Acinetobacter baumannii
A. baumannii A401 [11] = assay: Preliminary MBC without and with sub-inhibitory polymyxin B (Example 4); assay type: cell-based, Acinetobacter baumannii; details: Acinetobacter baumannii
A. baumannii J2 [12] = assay: as above; assay type: cell-based, Acinetobacter baumannii; details: Acinetobacter baumannii, preliminary MBC
A. baumannii A472 [13] = assay: MIC without and with sub-inhibitory polymyxin B (Example 4); assay type: cell-based, Acinetobacter baumannii; details: for MIC: Acinetobacter baumannii
A. baumannii A14 [14] = assay: as above; assay type: cell-based, Acinetobacter baumannii; details: 2nd experiment
A. baumannii NCTC 13301 [15] = assay: as above; assay type: cell-based, Acinetobacter baumannii
A. baumannii A473 [16] = assay: Preliminary MBC without and with sub-inhibitory polymyxin B (Example 4); assay type: cell-based, Acinetobacter baumannii; details: Acinetobacter baumannii, A473, A. baumannii A473, +0.06 μg/ml PB, 2nd experiment, read-out: MBC
Outline: (§1)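 After plating, cultures are held at 37° C for 18-20 hours; the endpoint is then scored by comparing colony growth against the positive control, with MBC defined as the lowest concentration showing roughly 90% reduction.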

A. baumannii NCTC 13301 [17] = assay: as above; assay type: cell-based, Acinetobacter baumannii; details: Acinetobacter baumannii
Outline: as §1

A. baumannii A14 [18] = assay: as above; assay type: cell-based, Acinetobacter baumannii; details: A. baumannii A14, +0.06 μg/ml PB, 2nd experiment
Outline: as §1

A. baumannii A390 [19] = assay: as above; assay type: cell-based, Acinetobacter baumannii; details: Acinetobacter baumannii, A390, A. baumannii A390, +0.06 μg/ml PB, 2nd experiment, read-out: MBC
Outline: as §1

A. baumannii A14 [20] = assay: MIC without and with sub-inhibitory polymyxin B (Example 4); assay type: cell-based, Acinetobacter baumannii; details: 1st experiment
A. baumannii A329 [21] = assay: Preliminary MBC without and with sub-inhibitory polymyxin B (Example 4); assay type: cell-based, Acinetobacter baumannii; details: Acinetobacter baumannii, A329, A. baumannii A329, +0.06 μg/ml PB, 2nd experiment, read-out: MBC
A. baumannii A489 = assay: MIC without and with sub-inhibitory polymyxin B (Example 4); assay type: cell-based, Acinetobacter baumannii; details: for MIC without PB/MIC + PB: A. baumannii A489; for MIC: Acinetobacter baumannii
A. baumannii A387 [22] = assay: Preliminary MBC without and with sub-inhibitory polymyxin B (Example 4); assay type: cell-based, Acinetobacter baumannii; details: Acinetobacter baumannii
[23] = ratio, PB 0.06 μg/ml, 1st experiment
[24] = A. baumannii A14, +0.06 μg/ml PB

Cc1c(-c2cc(F)c(N)cc2F)ccn2c(=O)c(C(=O)O)cc(C3CC3)c12 [Compound 2, 8-(4-amino-2,5-difluorophenyl)-1-cyclopropyl-9-methyl-4-oxo-4H-quinolizine-3-carboxylic acid] was tested, and the MBC (A. baumannii A472 [1]; A472, A. baumannii A472, +[…] PB, 2nd experiment, read-out: MBC) was ≤ 0.03 µg/mL, the MBC (A. baumannii A472 [1]; A472, read-out: MBC +[…] PB, A. baumannii A472, +[…] polymyxin B, 1st experiment) was ≤ 0.03 µg/mL and the “MIC without PB/MIC + PB” value (A. baumannii ATCC 19606; +0.06 μg/ml PB, 2nd experiment) was ≥4. For the same molecule, the “MIC without PB/MIC + PB” value (A. baumannii ATCC 19606; [23]) was ≥1, the “MIC without PB/MIC + PB” value (A. baumannii A473 [2]) was 64 and the “MIC without PB/MIC + PB” value (A. baumannii A401 [3]; A baumannii A 401, ratio, PB 0.06 μg/ml, 1st experiment) was ≥128. For the same molecule, the MIC (A. baumannii A401 [3]; A401, A baumannii A 401, +0.06 μg/ml PB, 2nd experiment, read-out: MIC) was ≤ 0.03 µg/mL, the MIC (A. baumannii A401 [3]; A401, read-out: MIC +0.06 μg/ml PB, A baumannii A 401, +0.06 μg/ml polymyxin B, 1st experiment) was ≤ 0.03 µg/mL and the “MIC without PB/MIC + PB” value (A. baumannii A329 [4]) was 16. The “MIC without PB/MIC + PB” value (A. baumannii NCTC 13301 [5]; A. baumannii NCTC 13301) was ≥512, the MIC (A. baumannii NCTC 13301 [5]; Acinetobacter baumannii, NCTC13301, A. baumannii NCTC 13301, read-out: MIC) was ≤ 0.03 µg/mL and the “MIC range with PB (0.25x MIC) Oct. 1, 2008 n = 8” value ([6]; 1st experiment, […] polymyxin B, ATCC 19606, A329, A390 and A473 not taken) was ≤0.03 to 1 µg/mL. For the same molecule, the “MIC range with PB (0.25x MIC) Oct. 14, 2008 n = 11” value ([6]; 2nd experiment, 0.06 μg/ml polymyxin B, all strains except the ATCC strain) was ≤0.03 to 0.5 µg/mL, the “MIC without PB/MIC + PB” value (A. baumannii A390 [7]; A. baumannii A390) was ≥512 and the MIC (A. baumannii A390 [7]; Acinetobacter baumannii, A390, A. baumannii A390, read-out: MIC) was ≤ 0.03 µg/mL. For the same molecule, the “MIC without PB/MIC + PB” value ([8]; Acinetobacter spp. H064200250 (OXA51), +[…] PB, 2nd experiment) was ≥128, the “MIC without PB/MIC + PB” value ([8]; Acinetobacter spp. H064200250, ratio, PB […], 1st experiment) was ≥128 and the MIC ([8]; Acinetobacter spp. H064200250 (OXA51), +[…] PB, 2nd experiment, read-out: MIC) was ≤ 0.03 µg/mL. The MIC ([8]; read-out: MIC +[…] PB, Acinetobacter spp. H064200250, +[…] polymyxin B, 1st experiment) was ≤ 0.03 µg/mL, the “MIC without PB/MIC + PB” value (A. baumannii J2 [9]; +[…] PB, 2nd experiment) was ≥128 and the “MIC without PB/MIC + PB” value (A. baumannii J2 [9]; ratio, PB […], 1st experiment) was ≥128. For the same molecule, the MIC (A. baumannii J2 [9]; J2, A. baumannii J2, +[…] PB, 2nd experiment, read-out: MIC) was ≤ 0.03 µg/mL, the MIC (A. baumannii J2 [9]; J2, read-out: MIC +[…] PB, A. baumannii J2, +[…] polymyxin B, 1st experiment) was ≤ 0.03 µg/mL and the “MIC without PB/MIC + PB” value (A. baumannii A387 [10]; +0.06 μg/ml PB, 2nd experiment) was ≥32. For the same molecule, the “MIC without PB/MIC + PB” value (A. baumannii A387 [10]; [23]) was ≥16, the MIC (A. baumannii A387 [10]; A387, A. baumannii A387, +0.06 μg/ml PB, 2nd experiment, read-out: MIC) was ≤ 0.03 µg/mL and the MIC (A. baumannii A387 [10]; A387, read-out: MIC +0.06 μg/ml PB, A. baumannii A387, +0.06 μg/ml polymyxin B, 1st experiment) was ≤ 0.03 µg/mL. The MBC (A. baumannii A401 [11]; A401, A baumannii A 401, +0.06 μg/ml PB, 2nd experiment, read-out: MBC) was ≤ 0.03 µg/mL, the MBC (A. baumannii A401 [11]; A401, read-out: MBC +0.06 μg/ml PB, A baumannii A 401, +0.06 μg/ml polymyxin B, 1st experiment) was ≤ 0.03 µg/mL and the MBC (A. baumannii J2 [12]; J2, A. baumannii J2, +[…] PB, 2nd experiment, read-out: MBC) was ≤ 0.03 µg/mL. For the same molecule, the MBC (A. baumannii J2 [12]; J2, read-out: MBC +[…] PB, A. baumannii J2, +[…] polymyxin B, 1st experiment) was ≤ 0.03 µg/mL, the “MIC without PB/MIC + PB” value (A. baumannii A472 [13]; A. baumannii A472, ratio, PB […], 1st experiment) was ≥128 and the MIC (A. baumannii A472 [13]; A472, A. baumannii A472, +[…] PB, 2nd experiment, read-out: MIC) was ≤ 0.03 µg/mL. For the same molecule, the MIC (A. baumannii A472 [13]; A472, read-out: MIC +[…] PB, A. baumannii A472, +[…] polymyxin B, 1st experiment) was ≤ 0.03 µg/mL, the MIC (A. baumannii A14 [14]; [24]) was 0.06 µg/mL (≈ 0.162 µM) and the “MIC without PB/MIC + PB” value (A. baumannii A14 [14]; [24]) was 256. For the same molecule, the MIC (A. baumannii A14 [14]; Acinetobacter baumannii, A14, A. baumannii A14, without PB, read-out: MIC) was 16 µg/mL (≈ 43.2 µM), the “MIC without PB/MIC + PB” value (A. baumannii NCTC 13301 [15]; A. baumannii NCTC 13301, ratio, PB […], 1st experiment) was ≥512 and the MIC (A. baumannii NCTC 13301 [15]; Acinetobacter baumannii, NCTC13301, read-out: MIC +[…] PB) was ≤ 0.03 µg/mL. For the same molecule, the MBC (A. baumannii A473 [16]) was 0.125 µg/mL (≈ 0.338 µM), the MBC (A. baumannii NCTC 13301 [17]; NCTC13301, A. baumannii NCTC 13301, +[…] PB, preliminary MBC, 2nd experiment, read-out: MBC) was ≤ 0.03 µg/mL and the MBC (A. baumannii NCTC 13301 [17]; NCTC13301, read-out: MBC +[…] PB) was ≤ 0.03 µg/mL. The MBC (A. baumannii A14 [18]) was 0.06 µg/mL (≈ 0.162 µM), the MBC (A. baumannii A390 [19]) was 0.06 µg/mL (≈ 0.162 µM) and the “MIC +0.06 μg/ml PB” value (A. baumannii A14 [20]; +0.06 μg/ml polymyxin B) was ≤0.03 µg/mL. For the same molecule, the MIC (A. baumannii A14 [20]; Acinetobacter baumannii, 24 h, without polymyxin B, read-out: MIC without PB) was 16 µg/mL (≈ 43.2 µM), the “MIC without PB/MIC + PB” value (A. baumannii A14 [20]; ratio, PB 0.06 μg/ml) was ≥512 and the MBC (A. baumannii A329 [21]) was 0.5 µg/mL (≈ 1.35 µM). For the same molecule, the “MIC without PB/MIC + PB” value (A. baumannii A489; +[…] PB, 2nd experiment) was ≥128, the “MIC without PB/MIC + PB” value (A. baumannii A489; ratio, PB […], 1st experiment) was ≥64 and the MIC (A. baumannii A489; A489, A. baumannii A489, +[…] PB, 2nd experiment, read-out: MIC) was ≤ 0.03 µg/mL. The MIC (A. baumannii A489; A489, read-out: MIC +[…] PB, A. baumannii A489, +[…] polymyxin B, 1st experiment) was ≤ 0.03 µg/mL, the MBC (A. baumannii A387 [22]; A387, A. baumannii A387, +0.06 μg/ml PB, 2nd experiment, read-out: MBC) was ≤ 0.03 µg/mL and the MBC (A. baumannii A387 [22]; A387, read-out: MBC +0.06 μg/ml PB, A. baumannii A387, +0.06 μg/ml polymyxin B, 1st experiment) was ≤ 0.03 µg/mL.
